# Experimental data published in US11696922B2, “Nanoparticle to target cancer” (Georgetown University, priority 2016, dated 2023).
# Tested on: gastrin mRNA
# Experiment: Gastrin mRNA decrease by gastrin siRNA si286
# Assay type: cell-based
sequence,measurement,value
"GUGCUGAGGAUGAGAACUA (listed as RNA, chemistry not given here) [si286]",decrease of gastrin mRNA,90%
